Results as given in PubChem BioAssay (NCI).
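Compound exposure: 48 hours, 5 concentrations, 96-well plates. GI50 is the concentration that inhibits growth by half. TGI marks complete inhibition of growth.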

Legend:
Assay in all cases: NCI tumour cell line growth inhibition, 48 h
[1] = system: CCRF-CEM leukemia
[2] = system: COLO 205 colon
[3] = system: SF-539 CNS
[4] = system: SNB-75 CNS
[5] = system: SR leukemia
[6] = system: SW-620 colon
[7] = system: UACC-257 melanoma
[8] = system: IGROV1 ovarian
[9] = system: NCI-H226 lung
[10] = system: TK-10 renal

Row | Compound | GI50 [1] | TGI [1] | GI50 [2] | TGI [2] | GI50 [3] | TGI [3] | GI50 [4] | TGI [4] | GI50 [5] | TGI [5] | GI50 [6] | TGI [6] | GI50 [7] | TGI [7] | GI50 [8] | TGI [8] | GI50 [9] | TGI [9] | GI50 [10] | TGI [10]
1 | O=C(/C=C/c1ccccc1)C(Br)C(Br)c1ccccc1 (stereo not given) | 0.308 µM | 1.2 µM | 1.54 µM | 3.14 µM | 1.87 µM | 3.86 µM | 3.06 µM | 17.5 µM | 0.455 µM | 2.59 µM | 0.402 µM | 1.59 µM | 1.59 µM | 3.66 µM |  |  |  |  |  | 
2 | CC[C@H](Nc1ncnc2nc[nH]c12)c1nc2cccc(F)c2c(=O)n1-c1ccccc1 | 12.2 µM | > 100 µM | 72.8 µM | > 100 µM | 19.7 µM | > 100 µM | 0.715 µM | 16.6 µM |  |  | 79.7 µM | > 100 µM | 18.9 µM | > 100 µM | 4.09 µM | 22.7 µM | > 65.6 µM | > 100 µM | 12.5 µM | > 100 µM
3 | Cc1nc(N)nc2c1CCC(O)S2 (stereo not given) | 4.29 µM | 69.1 µM | 5.31 µM | 16.7 µM | 12.3 µM | 27.9 µM | 11.2 µM | 39.8 µM | 4.21 µM | > 100 µM | 3.64 µM | 14.1 µM | 12.9 µM | 47.1 µM | 4.67 µM | 17.9 µM |  |  | 32.1 µM | > 100 µM
4 | O=S(=O)(NCCNc1nccc(-c2c(-c3ccc(F)c(O)c3)nc3sccn23)n1)c1ccc(F)cc1 |  |  | 5.62 µM | 36.1 µM | 4.54 µM | 25.3 µM | 1.55 µM | 8.81 µM | 1.34 µM | > 100 µM | 5.22 µM | 30.4 µM | 1.71 µM | 18.3 µM | 2.43 µM | 7.96 µM | 4.01 µM | 20.4 µM | 16.2 µM | 96.7 µM
5 | COC12CCC(=O)C=C1c1ccccc1N2C(C)=O (stereo not given) |  | > 100 µM |  | > 100 µM |  | > 100 µM |  | > 100 µM |  | > 100 µM |  | > 100 µM |  | > 100 µM |  | > 100 µM |  |  |  | 
6 | C=CCNc1nc2c(s1)C(=O)c1ccccc1C2=O |  |  |  | 41.2 µM |  | 16.7 µM |  | 38.8 µM |  | > 100 µM |  | 32.4 µM |  | 7.2 µM |  | 38.3 µM |  | 40.1 µM |  | 34.2 µM
7 | CCOC(=O)c1cc2cc3c4c(c2oc1=O)CCCN4CCC3 |  | > 100 µM |  | 57.1 µM |  | 58.2 µM |  |  |  | > 100 µM |  | > 100 µM |  | > 100 µM |  | > 100 µM |  | 51.3 µM |  | > 100 µM
8 | Cn1c(-c2c(N)n(Nc3cccc(Cl)c3)c3nc(C#N)c(C#N)nc23)nc2ccccc21 | 23.5 µM | > 50 µM | 6.35 µM | 18.2 µM | 1.38 µM | 10.3 µM | 8.33 µM | 35.1 µM | 2.53 µM | 41.4 µM | 7.94 µM | > 50 µM | 6.18 µM | 15.9 µM | 1.27 µM | 12.6 µM |  |  | 12.9 µM | > 50 µM
9 | O=C(O)c1ccc(NCn2nc(-c3ccccc3O)oc2=S)cc1 | 7.38 µM | > 100 µM | 48.8 µM | > 100 µM |  |  |  |  |  |  | 38.9 µM | > 100 µM | > 100 µM | > 100 µM | > 100 µM | > 100 µM | > 100 µM | > 100 µM | > 100 µM | > 100 µM
10 | COc1ccc(-c2cs/c(=N\N=C\c3ccc(O)cc3O)n2/N=C/c2ccc(O)cc2O)cc1 |  |  | 2.09 µM | 4.19 µM | 1.9 µM | 3.75 µM | 1.58 µM | 3.08 µM | 2.53 µM | > 100 µM | 2.33 µM | 4.91 µM | 2.28 µM | 6.19 µM | 2.67 µM | 6.5 µM | 2.08 µM | 4.78 µM | 2.46 µM | 5.1 µM
11 | CC(C)(C)c1cc(C(O)(C(F)(F)F)C(F)(F)F)c2c(c1)C(C(F)(F)F)(C(F)(F)F)OC(C)(C(C)(C)C)N2 (stereo not given) |  |  |  | 4.02 µM |  |  |  | 8.96 µM |  | 8.45 µM |  | 44.6 µM |  | 27.4 µM |  | > 100 µM |  | 8.53 µM |  | 
12 | COc1ccc2cc(/C=C/C(=O)c3ccc(Cl)cc3Cl)ccc2c1 | 21 µM | 57.2 µM |  |  | 72.9 µM | > 100 µM |  |  | 9.19 µM | 28.7 µM | 24.1 µM | 67 µM | 39.5 µM | > 100 µM | 42.9 µM | > 100 µM | 30.4 µM | > 100 µM | 77.9 µM | > 100 µM
13 | COC(=O)C1C(O)CCC2CN3CCc4c([nH]c5ccccc45)C3CC21 (stereo not given) |  |  |  | > 100 µM |  | > 100 µM |  | > 100 µM |  |  |  | > 100 µM |  | > 100 µM |  | > 100 µM |  | > 100 µM |  | > 100 µM
14 | N#Cc1ccccc1C(Cl)(Cl)c1cnccn1 |  | 50.3 µM |  | > 100 µM |  | > 100 µM |  |  |  | > 100 µM |  | > 100 µM |  | > 100 µM |  | > 100 µM |  | > 100 µM |  | > 100 µM
15 | CCCCCCCCOC(=O)CC[C@@H](C)[C@H]1CC[C@H]2[C@@H]3[C@H](OC(=O)CCN)C[C@@H]4C[C@H](OC(=O)CCN)CC[C@]4(C)[C@H]3C[C@H](OC(=O)CCN)[C@]12C |  |  | 4.74 µM | 20.6 µM | 3.01 µM | 8.77 µM | 3.32 µM | 13.6 µM |  |  | 1.95 µM | 3.93 µM | 3.84 µM | 16.5 µM | 3.24 µM | 9.1 µM | 13 µM | 44.8 µM |  | 
16 | C/C=C(/I)CBr |  | 23.4 µM |  | 28.2 µM |  | 32.5 µM |  |  |  |  |  | 36.6 µM |  |  |  | 33.7 µM |  | 38.5 µM |  | 
17 | CC1=C[C@H]2c3c([nH]c4ccccc34)C(c3c[nH]c4ccccc34)[C@H]2CC1 (stereo not given in full) |  | 10.9 µM |  | 13 µM |  | 25.6 µM |  | 19 µM |  |  |  | 24.1 µM |  | 27.9 µM |  | 22.4 µM |  | 27.7 µM |  | 28.5 µM
18 | COC(=O)/C=C(C)/C=C/C1OC(C)OCC1O (stereo not given) |  | > 100 µM |  | > 100 µM |  | > 100 µM |  |  |  |  |  | > 100 µM |  | > 100 µM |  | > 100 µM |  | > 100 µM |  | > 100 µM
19 | CCOC(=O)C1=C(Nc2ccc(Cl)cc2Cl)OCC1=O |  |  |  | > 100 µM |  | > 100 µM |  | > 100 µM |  | > 100 µM |  | > 100 µM |  | > 100 µM |  | > 100 µM |  | > 100 µM |  | > 100 µM
